Numbers after ± are expanded uncertainties.
Test: an = ratio of the nth substance listed, in mol/kg
Conditions: 100 kPa, Liquid; for electrical conductivity: Alternating current cell with electrodes

O=S(=O)([O-])[O-].[Cd+2] [cadmium sulfate] + O
Conditions | electrical conductivity, 278.15 K [S/m] | electrical conductivity, 283.15 K [S/m] | electrical conductivity, 288.15 K [S/m] | electrical conductivity, 293.15 K [S/m] | electrical conductivity, 298.15 K [S/m] | electrical conductivity, 303.15 K [S/m] | electrical conductivity, 308.15 K [S/m] | mass density, 298.15 K [kg/m3]
a1 = 0.00493 | 0.0507 ± 0.0051 | 0.0583 ± 0.0058 | 0.0658 ± 0.0066 | 0.0734 ± 0.0073 | 0.0813 ± 0.0081 | 0.0892 ± 0.0089 | 0.0972 ± 0.0097 | 998.06 ± 2.2
a1 = 0.01043 | 0.092 ± 0.0092 | 0.105 ± 0.011 | 0.119 ± 0.012 | 0.132 ± 0.013 | 0.146 ± 0.015 | 0.16 ± 0.016 | 0.174 ± 0.017 | 999.18 ± 2.2
a1 = 0.0299 | 0.209 ± 0.021 | 0.239 ± 0.024 | 0.269 ± 0.027 | 0.298 ± 0.03 | 0.328 ± 0.033 | 0.358 ± 0.036 | 0.387 ± 0.039 | 1003.14 ± 2.2
a1 = 0.0514 | 0.319 ± 0.032 | 0.364 ± 0.036 | 0.409 ± 0.041 | 0.454 ± 0.045 | 0.499 ± 0.05 | 0.544 ± 0.054 | 0.587 ± 0.059 | 1007.53 ± 2.2
a1 = 0.1001 | 0.537 ± 0.054 | 0.612 ± 0.061 | 0.687 ± 0.069 | 0.761 ± 0.076 | 0.836 ± 0.084 | 0.91 ± 0.091 | 0.981 ± 0.098 | 1017.5 ± 2.3
a1 = 0.2017 | 0.93 ± 0.093 | 1.06 ± 0.11 | 1.19 ± 0.12 | 1.32 ± 0.13 | 1.44 ± 0.14 | 1.57 ± 0.16 | 1.69 ± 0.17 | 1038.74 ± 2.4
a1 = 0.4092 | 1.61 ± 0.16 | 1.83 ± 0.18 | 2.05 ± 0.2 | 2.27 ± 0.23 | 2.49 ± 0.25 | 2.71 ± 0.27 | 2.92 ± 0.29 | 1084.21 ± 2.7
a1 = 0.6014 | 2.13 ± 0.21 | 2.42 ± 0.24 | 2.72 ± 0.27 | 3.01 ± 0.3 | 3.31 ± 0.33 | 3.6 ± 0.36 | 3.89 ± 0.39 | 1129.51 ± 3
a1 = 0.8202 | 2.6 ± 0.26 | 2.97 ± 0.3 | 3.33 ± 0.33 | 3.7 ± 0.37 | 4.07 ± 0.41 | 4.43 ± 0.44 | 4.8 ± 0.48 | 1185.1 ± 3.3
a1 = 1.001 | 2.96 ± 0.3 | 3.38 ± 0.34 | 3.79 ± 0.38 | 4.21 ± 0.42 | 4.63 ± 0.46 | 5.05 ± 0.51 | 5.47 ± 0.55 | 1234.43 ± 3.7
a1 = 1.209 | 3.1 ± 0.31 | 3.56 ± 0.36 | 4.01 ± 0.4 | 4.47 ± 0.45 | 4.95 ± 0.49 | 5.42 ± 0.54 | 5.9 ± 0.59 | 1295.86 ± 4.1
a1 = 1.378 | 3.16 ± 0.32 | 3.63 ± 0.36 | 4.11 ± 0.41 | 4.6 ± 0.46 | 5.1 ± 0.51 | 5.61 ± 0.56 | 6.12 ± 0.61 | 1349.9 ± 4.5
a1 = 1.486 | 3.13 ± 0.31 | 3.62 ± 0.36 | 4.11 ± 0.41 | 4.61 ± 0.46 | 5.12 ± 0.51 | 5.65 ± 0.57 | 6.18 ± 0.62 | 1385.75 ± 4.8
a1 = 1.609 | 3.04 ± 0.3 | 3.53 ± 0.35 | 4.02 ± 0.4 | 4.53 ± 0.45 | 5.06 ± 0.51 | 5.6 ± 0.56 | 6.14 ± 0.61 | 1429.78 ± 5.1
a1 = 1.798 | 2.8 ± 0.28 | 3.28 ± 0.33 | 3.77 ± 0.38 | 4.28 ± 0.43 | 4.81 ± 0.48 | 5.36 ± 0.54 | 5.91 ± 0.59 | 1500.75 ± 5.7
a1 = 1.939 | 2.53 ± 0.25 | 2.99 ± 0.3 | 3.46 ± 0.35 | 3.95 ± 0.39 | 4.47 ± 0.45 | 5 ± 0.5 | 5.55 ± 0.56 | 1556.84 ± 6.1
